Data published in ChEMBL document CHEMBL1201862, “PubChem BioAssay data set” (2004).
Calls of active or inactive are those of the source.

Key:
[1] = blockers of HIV-1 envelope-mediated cell-cell fusion – cherry-pick, dose response (AID 652057); format: functional, cell-based
[2] = blockers of HIV-1 ZM109 envelope-driven cell-cell fusion – HeLa effector, CEM target cells, luciferase, cherry-pick, dose response (AID 652058); format: functional, cell-based;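 further: luciferase signal from HIV-1 Env mediated cell-cell fusion of effector and target cells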
[3] = HIV-1 AD8 envelope cell-cell fusion blockers – cherry-pick, dose response (AID 652062); format: functional, cell-based;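 further: luciferase signal from cell-cell fusion driven by HIV-1 clade B AD8 Env; potency is for inhibitors of fusion seen as a drop in luminescence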
[4] = off-target signal loss in HeLa-CEM21 co-culture – HeLa F-luc CTL cells, cherry-picked, counter-screen for HIV-1 Env fusion inhibitor project, dose response (AID 652040); format: functional, cell-based;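 further: potency for signal decrease marking cytotoxic or nonspecific inhibition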
Caspase-6 = biological target: T1, Caspase-6 (Homo sapiens, UniProt P55212); assay: inhibition of CASP6 peptide cleavage – biochemical, VEID-R110 fluorescence, cherry-pick, dose response (AID 720632)
T1 sequence (P55212 whole entry): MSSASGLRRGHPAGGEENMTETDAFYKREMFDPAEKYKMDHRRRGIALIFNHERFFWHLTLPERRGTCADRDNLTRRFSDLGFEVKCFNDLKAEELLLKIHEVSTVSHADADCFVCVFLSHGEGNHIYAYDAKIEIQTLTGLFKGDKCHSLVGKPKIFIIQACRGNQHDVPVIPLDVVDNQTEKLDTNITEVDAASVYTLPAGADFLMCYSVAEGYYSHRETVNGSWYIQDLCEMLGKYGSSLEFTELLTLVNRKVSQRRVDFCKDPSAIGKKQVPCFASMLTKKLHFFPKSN

[5] = biological target: Luciferin 4-monooxygenase (Photinus pyralis, UniProt P08659); assay: inhibition of purified Photinus pyralis luciferase – biochemical, luminescence, dose response (AID 1891)
Luciferin 4-monooxygenase, sequence (P08659 whole entry): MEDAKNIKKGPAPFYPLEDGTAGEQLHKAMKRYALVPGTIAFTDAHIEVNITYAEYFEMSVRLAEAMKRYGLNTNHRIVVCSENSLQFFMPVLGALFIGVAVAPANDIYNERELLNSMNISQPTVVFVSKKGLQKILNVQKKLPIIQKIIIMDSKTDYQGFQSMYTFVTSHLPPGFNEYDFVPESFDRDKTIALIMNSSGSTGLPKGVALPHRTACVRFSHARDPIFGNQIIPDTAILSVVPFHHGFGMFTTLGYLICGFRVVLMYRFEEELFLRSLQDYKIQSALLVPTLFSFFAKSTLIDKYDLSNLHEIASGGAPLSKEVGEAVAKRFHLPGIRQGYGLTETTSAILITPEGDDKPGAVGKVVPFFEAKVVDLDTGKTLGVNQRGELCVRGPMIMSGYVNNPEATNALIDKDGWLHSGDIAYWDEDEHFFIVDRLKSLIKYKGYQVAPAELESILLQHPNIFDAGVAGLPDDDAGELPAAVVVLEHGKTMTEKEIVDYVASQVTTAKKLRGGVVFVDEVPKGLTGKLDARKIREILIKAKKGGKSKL

[6] = Luminescence Cell-Based Dose Confirmation HTS to Identify Inhibitors of Platelet Dense Granule Release. [Related pubchem assays: 1663 (Primary HTS), 1678 (Summary of Project)]; format: functional
Fatty acid synthase [7] = biological target: T2, Fatty acid synthase (Homo sapiens, UniProt P49327); assay: inhibition of human FAS-TE enzyme activity – biochemical, kinetic fluorescence intensity, dose response (AID 624326); format: functional;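 further: rate of fluorescence rise from hydrolysis of a fluorogenic O-methyl fluorescein ester substrate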
T2 sequence (P49327 whole entry): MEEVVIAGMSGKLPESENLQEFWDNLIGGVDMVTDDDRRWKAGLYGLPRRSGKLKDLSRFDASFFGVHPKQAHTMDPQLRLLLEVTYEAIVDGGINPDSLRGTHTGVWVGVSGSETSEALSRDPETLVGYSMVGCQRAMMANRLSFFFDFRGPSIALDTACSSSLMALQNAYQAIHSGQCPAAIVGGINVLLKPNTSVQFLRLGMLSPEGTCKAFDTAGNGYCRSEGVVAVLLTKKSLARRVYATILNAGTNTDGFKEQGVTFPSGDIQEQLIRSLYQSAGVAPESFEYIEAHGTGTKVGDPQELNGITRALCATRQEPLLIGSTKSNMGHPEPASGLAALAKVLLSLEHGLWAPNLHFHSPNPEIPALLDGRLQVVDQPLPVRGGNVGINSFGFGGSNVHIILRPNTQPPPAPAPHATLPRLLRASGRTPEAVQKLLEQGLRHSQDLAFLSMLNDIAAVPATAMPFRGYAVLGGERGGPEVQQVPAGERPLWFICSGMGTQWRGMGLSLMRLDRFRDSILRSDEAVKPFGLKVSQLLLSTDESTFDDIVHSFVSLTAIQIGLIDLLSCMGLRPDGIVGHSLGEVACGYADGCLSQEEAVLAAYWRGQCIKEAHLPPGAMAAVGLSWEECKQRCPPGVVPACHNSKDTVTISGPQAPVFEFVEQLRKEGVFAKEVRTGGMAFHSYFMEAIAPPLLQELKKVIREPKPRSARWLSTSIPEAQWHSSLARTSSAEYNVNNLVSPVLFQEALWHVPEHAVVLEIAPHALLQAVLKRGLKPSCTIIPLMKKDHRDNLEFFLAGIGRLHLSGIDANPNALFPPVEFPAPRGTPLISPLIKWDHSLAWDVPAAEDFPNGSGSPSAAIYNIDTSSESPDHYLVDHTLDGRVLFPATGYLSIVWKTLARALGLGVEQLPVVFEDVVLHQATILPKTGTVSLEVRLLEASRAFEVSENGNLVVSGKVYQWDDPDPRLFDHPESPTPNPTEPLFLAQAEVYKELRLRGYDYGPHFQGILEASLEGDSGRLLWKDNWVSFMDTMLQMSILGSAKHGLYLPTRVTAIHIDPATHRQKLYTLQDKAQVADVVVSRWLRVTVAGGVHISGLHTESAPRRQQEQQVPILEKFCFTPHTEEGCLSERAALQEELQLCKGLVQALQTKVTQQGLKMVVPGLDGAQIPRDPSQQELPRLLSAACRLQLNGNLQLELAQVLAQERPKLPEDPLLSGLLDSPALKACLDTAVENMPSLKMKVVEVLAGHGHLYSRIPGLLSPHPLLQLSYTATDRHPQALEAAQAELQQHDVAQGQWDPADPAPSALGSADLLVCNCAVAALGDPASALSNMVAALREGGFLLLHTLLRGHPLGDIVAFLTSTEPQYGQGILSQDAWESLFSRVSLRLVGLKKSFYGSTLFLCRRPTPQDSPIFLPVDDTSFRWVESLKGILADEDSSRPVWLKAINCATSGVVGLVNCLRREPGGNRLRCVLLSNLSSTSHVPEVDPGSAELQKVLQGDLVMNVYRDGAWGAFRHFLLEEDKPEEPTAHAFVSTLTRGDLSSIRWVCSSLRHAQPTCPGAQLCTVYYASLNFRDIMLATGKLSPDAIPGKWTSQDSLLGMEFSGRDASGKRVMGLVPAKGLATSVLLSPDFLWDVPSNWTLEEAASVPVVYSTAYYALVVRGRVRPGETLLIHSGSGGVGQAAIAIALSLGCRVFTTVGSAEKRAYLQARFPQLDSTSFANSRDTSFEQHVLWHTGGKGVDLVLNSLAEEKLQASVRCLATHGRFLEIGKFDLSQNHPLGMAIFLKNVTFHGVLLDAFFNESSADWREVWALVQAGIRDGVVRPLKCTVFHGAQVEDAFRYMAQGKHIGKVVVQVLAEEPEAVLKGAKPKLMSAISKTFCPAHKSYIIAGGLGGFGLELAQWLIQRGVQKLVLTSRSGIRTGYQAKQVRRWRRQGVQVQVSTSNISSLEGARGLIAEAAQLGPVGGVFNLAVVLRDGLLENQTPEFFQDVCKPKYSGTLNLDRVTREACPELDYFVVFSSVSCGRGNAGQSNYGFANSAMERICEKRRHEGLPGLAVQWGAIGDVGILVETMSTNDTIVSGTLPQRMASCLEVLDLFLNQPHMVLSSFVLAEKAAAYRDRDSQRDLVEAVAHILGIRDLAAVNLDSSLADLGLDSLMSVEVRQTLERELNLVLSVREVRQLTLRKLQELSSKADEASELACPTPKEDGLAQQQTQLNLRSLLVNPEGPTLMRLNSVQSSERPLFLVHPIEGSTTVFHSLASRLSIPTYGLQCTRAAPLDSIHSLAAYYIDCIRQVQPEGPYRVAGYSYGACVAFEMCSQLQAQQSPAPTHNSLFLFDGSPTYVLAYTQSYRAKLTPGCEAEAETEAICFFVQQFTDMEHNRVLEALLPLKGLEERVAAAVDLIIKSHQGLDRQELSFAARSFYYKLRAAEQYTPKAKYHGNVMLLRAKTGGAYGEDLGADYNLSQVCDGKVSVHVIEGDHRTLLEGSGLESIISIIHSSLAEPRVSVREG

Fatty acid synthase [8] = biological target: T2, Fatty acid synthase; assay: inhibition of human FAS-TE enzyme activity – biochemical, endpoint fluorescence intensity, uHTS hits, dose response (AID 624327); format: functional;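 further: fluorescence from hydrolysis of an O-methyl fluorescein acyl ester substrate by the enzyme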
[9] = biological target: T3, Carboxy-terminal domain RNA polymerase II polypeptide A small phosphatase 1 (Homo sapiens, UniProt Q9GZU7); assay: CTDSP1 inhibitors, concentration-response, biochemical, absorbance readout, ultra-high-throughput screen actives (AID 540297); format: functional
T3 sequence (Q9GZU7 whole entry): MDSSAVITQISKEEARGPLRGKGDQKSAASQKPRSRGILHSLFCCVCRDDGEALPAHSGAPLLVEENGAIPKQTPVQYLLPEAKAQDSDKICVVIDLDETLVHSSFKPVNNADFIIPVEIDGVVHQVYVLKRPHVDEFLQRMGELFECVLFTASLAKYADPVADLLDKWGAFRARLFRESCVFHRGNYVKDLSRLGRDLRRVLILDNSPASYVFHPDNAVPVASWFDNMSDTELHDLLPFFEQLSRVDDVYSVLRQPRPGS

[10] = biological target: T4, Long-chain-fatty-acid--AMP ligase FadD28 (Mycobacterium tuberculosis, UniProt P9WQ59); assay: Fluorescence polarization aasay to screen for inhibitors that compete for the binding of FadD28 to a bisubstrate Measured in Biochemical System Using Plate Reader - 2147-01_Inhibitor_Dose_CherryPick_Activity.; format: functional, Mycobacterium tuberculosis H37Rv
T4 sequence (P9WQ59 whole entry): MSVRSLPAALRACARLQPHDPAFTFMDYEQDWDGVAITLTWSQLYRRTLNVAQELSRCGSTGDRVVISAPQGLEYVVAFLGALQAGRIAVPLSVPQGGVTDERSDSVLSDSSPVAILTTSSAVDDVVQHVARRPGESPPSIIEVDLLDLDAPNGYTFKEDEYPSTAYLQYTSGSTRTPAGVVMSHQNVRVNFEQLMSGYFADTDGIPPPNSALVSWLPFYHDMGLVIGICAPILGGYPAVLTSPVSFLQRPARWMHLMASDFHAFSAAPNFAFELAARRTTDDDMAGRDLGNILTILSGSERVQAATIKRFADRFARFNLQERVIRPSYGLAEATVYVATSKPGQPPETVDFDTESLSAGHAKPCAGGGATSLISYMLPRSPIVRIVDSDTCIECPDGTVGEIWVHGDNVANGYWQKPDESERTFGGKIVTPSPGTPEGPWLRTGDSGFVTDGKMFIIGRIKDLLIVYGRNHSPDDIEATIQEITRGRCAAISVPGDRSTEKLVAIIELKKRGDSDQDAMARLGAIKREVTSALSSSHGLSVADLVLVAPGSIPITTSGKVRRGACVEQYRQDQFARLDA

[11] = non-specific 3'UTR reporter inhibition in Clone20-Shn3RL – cell-based, Renilla luciferase, cherry-picked, counter-screen for Shn3 inhibitor project, dose response (AID 624133); format: functional
cells = format: functional, cell-based; settings: HEK-CNG
Galanin receptor type 3 = biological target: T5, Galanin receptor type 3 (Homo sapiens, UniProt O60755); assay: Fluorescence-based cell-based primary high throughput dose response assay to identify antagonists of the Galanin Receptor 3 (GalR3).; format: functional
T5 sequence (O60755 whole entry): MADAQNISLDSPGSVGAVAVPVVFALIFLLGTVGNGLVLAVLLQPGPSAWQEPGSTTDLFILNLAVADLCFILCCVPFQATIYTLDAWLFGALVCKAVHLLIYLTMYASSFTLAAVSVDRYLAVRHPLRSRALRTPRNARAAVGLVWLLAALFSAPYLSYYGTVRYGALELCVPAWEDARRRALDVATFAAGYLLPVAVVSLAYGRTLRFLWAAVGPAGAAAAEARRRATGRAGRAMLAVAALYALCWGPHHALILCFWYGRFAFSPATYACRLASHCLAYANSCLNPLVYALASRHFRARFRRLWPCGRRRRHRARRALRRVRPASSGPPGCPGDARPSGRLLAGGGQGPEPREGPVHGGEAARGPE

[12] = loss of viability in HepG2 cells – cell-based, CellTiter-Glo, cherry-picked, cytotoxicity control for Shn3 inhibitor project, dose response (AID 624134); format: functional
[13] = reduction of Shn3 3'UTR-driven luciferase in osteoblasts – cell-based, Clone20 osteoblasts, firefly luciferase, cherry-picked, dose response (AID 624132); format: functional;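 further: firefly luciferase luminescence from reporter carrying the Shn3 3'UTR in osteoblasts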
INS1 = assay: INS-1E survival protection against cytokine death – cell-based, luminescence, retest, dose response (AID 449756); format: functional; settings: Rattus norvegicus;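 further: cell death triggered by IL-1 beta plus TNF-alpha plus IFN-gamma mixture; protective hits raise ATP signal compared with cytokine alone wells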
[14] = biological target: T6, Tyrosyl-DNA phosphodiesterase 2 (Homo sapiens, UniProt O95551); assay: potency against TDP2 phosphodiesterase activity – biochemical, epi absorbance, IC50, dose response (AID 743297)
T6 sequence (O95551 whole entry): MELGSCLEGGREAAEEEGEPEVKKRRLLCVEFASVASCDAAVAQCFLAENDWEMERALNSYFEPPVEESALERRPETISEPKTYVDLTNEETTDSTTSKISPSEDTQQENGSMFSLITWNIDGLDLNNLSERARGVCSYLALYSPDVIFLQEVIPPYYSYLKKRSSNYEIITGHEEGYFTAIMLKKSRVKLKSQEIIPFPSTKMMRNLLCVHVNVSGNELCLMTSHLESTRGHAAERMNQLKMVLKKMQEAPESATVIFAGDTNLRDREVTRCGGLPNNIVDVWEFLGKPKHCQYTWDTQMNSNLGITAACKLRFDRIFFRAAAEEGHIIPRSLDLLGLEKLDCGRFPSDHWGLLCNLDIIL

[15] = HIV-1 Vif–A3G interaction blockers – biochemical, TR-FRET, GST-Vif 1-94, biotin-A3G peptide, dose response retest, primary screen (AID 1117319); format: functional;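 further: TR-FRET signal of purified GST-Vif binding a biotinylated A3G peptide; inhibitors lower the FRET signal by blocking Vif and A3G binding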
[16] = biological target: Disintegrin and metalloproteinase domain-containing protein 17 (Homo sapiens, UniProt P78536); assay: exosite inhibitors of ADAM17, dose response, biochemical (AID 743260)
Disintegrin and metalloproteinase domain-containing protein 17, sequence (P78536 whole entry, the tested form may be a part): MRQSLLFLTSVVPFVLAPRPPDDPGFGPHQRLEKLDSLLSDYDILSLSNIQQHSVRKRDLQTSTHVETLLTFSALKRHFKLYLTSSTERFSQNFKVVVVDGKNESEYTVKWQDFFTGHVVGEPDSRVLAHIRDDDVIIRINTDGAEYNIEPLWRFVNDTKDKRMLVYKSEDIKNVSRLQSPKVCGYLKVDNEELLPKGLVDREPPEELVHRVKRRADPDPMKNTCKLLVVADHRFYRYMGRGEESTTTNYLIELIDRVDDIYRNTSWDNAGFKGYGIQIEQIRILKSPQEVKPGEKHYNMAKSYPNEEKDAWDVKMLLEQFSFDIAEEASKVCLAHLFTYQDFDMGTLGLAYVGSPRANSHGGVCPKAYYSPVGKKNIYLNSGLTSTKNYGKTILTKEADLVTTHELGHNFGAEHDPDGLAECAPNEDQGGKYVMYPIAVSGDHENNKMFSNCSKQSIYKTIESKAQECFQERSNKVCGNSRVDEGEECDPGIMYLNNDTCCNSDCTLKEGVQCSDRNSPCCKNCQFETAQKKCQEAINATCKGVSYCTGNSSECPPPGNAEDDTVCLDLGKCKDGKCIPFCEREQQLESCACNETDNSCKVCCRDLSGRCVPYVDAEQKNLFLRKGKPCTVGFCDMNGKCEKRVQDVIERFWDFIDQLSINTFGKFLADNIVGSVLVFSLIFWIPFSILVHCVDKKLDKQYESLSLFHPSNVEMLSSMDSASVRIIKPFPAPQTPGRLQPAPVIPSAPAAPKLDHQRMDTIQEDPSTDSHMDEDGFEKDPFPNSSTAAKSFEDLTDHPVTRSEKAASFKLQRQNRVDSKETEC

[17] = inhibition of ADAM10 peptide cleavage – biochemical, FRET peptide substrate, recombinant human ADAM10, selectivity assay for ADAM17 exosite inhibitor project, dose response (AID 743259);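 further: ADAM10 enzyme cleaving a FRET peptide substrate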
[18] = A2780 cell killing – plate reader, dry powder samples, cytotoxicity control, dose response (AID 743046); format: functional, cell-based
Paired box protein Pax-8 = Paired box protein Pax-8 (Homo sapiens, UniProt Q06710); assay: PAX8 transcriptional activity inhibition in RMG-I – RMG-I cells, luciferase, cherry-pick, dose response (AID 687027); format: functional, cell-based;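 further: luciferase reporter driven by Pax8 target thyroperoxidase promoter measured by SteadyGlo luminescence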
Paired box protein Pax-8, sequence (Q06710 whole entry): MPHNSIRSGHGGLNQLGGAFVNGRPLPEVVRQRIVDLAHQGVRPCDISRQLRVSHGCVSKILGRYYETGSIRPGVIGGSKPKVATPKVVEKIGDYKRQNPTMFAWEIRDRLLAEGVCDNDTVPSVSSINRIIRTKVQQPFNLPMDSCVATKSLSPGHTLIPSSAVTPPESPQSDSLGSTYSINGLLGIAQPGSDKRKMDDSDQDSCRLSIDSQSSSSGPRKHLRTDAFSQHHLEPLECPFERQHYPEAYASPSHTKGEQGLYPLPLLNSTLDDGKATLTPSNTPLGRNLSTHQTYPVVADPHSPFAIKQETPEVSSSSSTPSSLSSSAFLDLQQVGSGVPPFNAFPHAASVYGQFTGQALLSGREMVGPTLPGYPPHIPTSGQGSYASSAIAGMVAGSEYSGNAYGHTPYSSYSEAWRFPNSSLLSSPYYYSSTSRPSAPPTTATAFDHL

In the case of `COc1ccc(C(O)(C2CCCCC2)C(CN2CCOCC2)c2ccccc2)cc1` (configuration not stated), the AC50 [1] is reported as 5.2 µM (active), the AC50 [2] is reported as 1.09 µM (active) and the AC50 [3] is reported as 11.1 µM (active). For the same compound, the AC50 [4] was 7.26 µM (active).

For `O=C(O)C1C2C=CC(C2)C1C(=O)NCc1cccs1` (configuration not stated), the AC50 (Caspase-6) was 14.8 µM (active), the EC50 [5] was > 112 µM (not active) and the EC50 [6] was > 112 µM (not active).

In the case of `O=C(COC(=O)c1cc([N+](=O)[O-])ccc1NCCO)NCc1cccs1`, the IC50 (Fatty acid synthase [7]) is reported as 1.68 µM (active) and the IC50 (Fatty acid synthase [8]) is reported as 3.84 µM (active).

For `COc1ccc(S(=O)(=O)NNC(=O)Cc2csc(C)n2)cc1[N+](=O)[O-]`, the AC50 (Caspase-6) was 8.98 µM (active) and the IC50 [9] was 16.3 µM (active).

In the case of `CC(C)N(C)S(=O)(=O)c1ccc(NC(=O)CSC(=S)N2CCCC2)cc1`, the AC50 [10] is reported as > 100 µM (inactive).

With `NC(=O)c1ccc(N2CCN(S(=O)(=O)c3cccs3)CC2)c([N+](=O)[O-])c1` the AC50 [11] was 6.21 µM (active), the EC50 (cells) was > 29.9 µM (inactive) and the IC50 (Galanin receptor type 3) was 1.09 µM (active). The AC50 [12] was 2.54 µM (active), the AC50 [13] was 0.305 µM (active) and the AC50 (INS1) was 3.67 µM (active).

In the case of `Clc1ccccc1N=Nc1ccccn1`, the IC50 [14] is reported as > 128 µM (inactive) and the IC50 [15] is reported as > 100 µM (active).

For `COc1cccc(C(=O)c2c(-c3ccccc3)ncc3cc(OC)c(OC)cc23)c1`, the IC50 [16] was > 69.4 µM (inactive) and the IC50 [17] was > 69.4 µM (inactive).

For `CC(Cc1ccccc1)=NNS(=O)(=O)c1ccc([N+](=O)[O-])cc1`, the IC50 (Fatty acid synthase [7]) was 12.7 µM (active) and the IC50 (Fatty acid synthase [8]) was 9.15 µM (active).

For `Cc1ccc(S(=O)(=O)N2CCC(=O)N([C@H](COC(=O)Nc3ccccc3)Cc3ccccc3)CC2)cc1`, the IC50 [16] was > 69.4 µM (inactive) and the IC50 [17] was > 7.72 µM (active).

For `C[C@@H]1CN([C@H](C)CO)C(=O)c2c(c3ccccc3n2C)-c2ccccc2CO[C@H]1CN(C)S(=O)(=O)c1cccc(F)c1`, the AC50 [18] was 4.51 µM (active) and the AC50 (Paired box protein Pax-8) was 19.2 µM (active).

In the case of `Cc1cccc(NC(=O)CSc2nnc(SCc3ccc(Cl)cc3)s2)c1`, the IC50 [16] is reported as > 69.4 µM (inactive) and the IC50 [17] is reported as > 69.4 µM (inactive).

With `Cc1ccc(S(=O)(=O)/N=C(\Sc2ccccc2)c2ccccc2)cc1` the IC50 (Fatty acid synthase [7]) was 54 µM (inactive) and the IC50 (Fatty acid synthase [8]) was 11 µM (active).
